The target of one assay is T1, GluA1o-γ8 (Homo sapiens, UniProt P42261+Q8WXS5).
T1 construct: expressed in transfected cells
T1 sequence (P42261+Q8WXS5 fused): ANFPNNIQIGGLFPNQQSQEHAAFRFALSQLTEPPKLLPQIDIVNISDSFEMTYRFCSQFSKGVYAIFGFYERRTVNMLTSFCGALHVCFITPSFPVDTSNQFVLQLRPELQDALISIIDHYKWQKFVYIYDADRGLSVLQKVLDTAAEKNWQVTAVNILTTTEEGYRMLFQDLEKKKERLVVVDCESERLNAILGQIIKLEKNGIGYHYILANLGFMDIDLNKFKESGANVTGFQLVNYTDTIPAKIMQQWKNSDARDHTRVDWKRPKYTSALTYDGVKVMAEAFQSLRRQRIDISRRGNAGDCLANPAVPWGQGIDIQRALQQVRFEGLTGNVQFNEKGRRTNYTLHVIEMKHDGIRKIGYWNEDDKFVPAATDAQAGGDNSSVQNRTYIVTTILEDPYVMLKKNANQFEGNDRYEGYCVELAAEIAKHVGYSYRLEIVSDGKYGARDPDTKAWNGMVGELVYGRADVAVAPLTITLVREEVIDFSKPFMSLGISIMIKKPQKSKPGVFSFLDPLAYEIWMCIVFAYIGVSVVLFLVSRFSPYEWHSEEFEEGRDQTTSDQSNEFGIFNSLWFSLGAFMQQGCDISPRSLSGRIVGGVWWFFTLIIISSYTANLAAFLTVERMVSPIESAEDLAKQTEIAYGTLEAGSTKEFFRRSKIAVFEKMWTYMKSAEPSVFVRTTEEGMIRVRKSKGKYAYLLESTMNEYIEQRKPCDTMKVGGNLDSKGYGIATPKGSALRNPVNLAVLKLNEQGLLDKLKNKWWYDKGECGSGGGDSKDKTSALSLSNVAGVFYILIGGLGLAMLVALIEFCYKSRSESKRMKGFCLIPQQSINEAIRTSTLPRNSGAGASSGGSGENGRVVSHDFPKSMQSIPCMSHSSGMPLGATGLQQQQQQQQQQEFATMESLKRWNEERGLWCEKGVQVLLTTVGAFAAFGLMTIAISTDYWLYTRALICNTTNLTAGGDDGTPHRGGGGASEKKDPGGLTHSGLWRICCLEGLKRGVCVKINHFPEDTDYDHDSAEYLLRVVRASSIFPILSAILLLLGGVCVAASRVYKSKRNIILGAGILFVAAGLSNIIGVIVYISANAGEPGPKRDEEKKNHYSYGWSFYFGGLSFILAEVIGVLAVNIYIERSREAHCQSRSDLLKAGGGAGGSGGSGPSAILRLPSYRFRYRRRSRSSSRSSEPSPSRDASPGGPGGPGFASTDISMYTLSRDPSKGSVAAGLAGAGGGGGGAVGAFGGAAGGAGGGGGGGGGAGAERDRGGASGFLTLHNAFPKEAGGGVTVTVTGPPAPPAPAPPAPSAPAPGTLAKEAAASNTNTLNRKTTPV
In words: Calcium flux assay (FLIPR), inhibition of glutamate response of GluA1o-γ8 channel in HEK293 cells. In kind it is cell-based. The settings on record: HEK293 cells stably expressing GRIA1o-CACNG8 fusion; 15 μM glutamate; pIC50 = negative log of the IC50 in molar. From the text:
This assay was used to test compounds for their ability to inhibit TARP γ8 dependent AMPA receptor activity. The AMPA receptor is a non-selective cation channel activated by glutamate. Ionotropic glutamate receptors normally desensitize too rapidly to allow detectable calcium influx in a FLIPR assay (Strange et al. (2006). “Functional characterisation of homomeric ionotropic glutamate receptors GluR1-GluR6 in a fluorescence-based high throughput screening assay.” Comb Chem High Throughput Screen 9(2): 147-158). But, this desensitization is incomplete, and a substantial steady-state current remains in the sustained presence of glutamate (Cho et al. (2007). “Two families of TARP isoforms that have distinct effects on the kinetic properties of AMPA receptors and synaptic currents.” Neuron 55(6): 890-904).
An in vitro assay was used to determine the potency of test compounds as inhibitors of the glutamate response of the channel formed by GluA1o-γ8. To ensure a 1:1 stoichiometry of GluA1o and γ8 subunits in the expressed channel, a fusion of the cDNAs for GRIA1o and CACNG8 was used. Following Shi et al (2009) “The stoichiometry of AMPA receptors and TARPs varies by neuronal cell type.” Neuron 62(5): 633-640), the C-terminus of the cDNA for GRIA1o was fused to the N-terminus of the cDNA for γ8. The linker sequence was QQQQQQQQQQEFAT. Channels expressed with this construct appear to have similar properties to channels formed by co-expression of GRIA1o with an excess of CACNG8 (Shi et al. 2009). A clonal cell line in HEK293 cells stably expressing this construct, with a geneticin selection marker, was generated for use in this assay. Cell expressing the GRIA1o-CACNG8 fusion construct were grown in a monolayer in 96- or 384-well microtiter plates. They were washed with assay buffer (135 mM NaCl, 4 mM KCl, 3 mM CaCl2, 1 mM MgCl2, 5 mM glucose, 10 mM HEPES, pH 7.4, 300 mOs) using a Biotek EL405 plate washer. The cells were then loaded with a calcium-sensitive dye (Calcium-5 or Calcium-6, Molecular Devices) and the test compounds at a range of concentrations. Calcium flux following the addition of 15 μM glutamate was monitored using a Molecular Devices FLIPR Tetra.
The fluorescence in each well was normalized to the fluorescence of negative and positive control wells. The negative control wells had no added compounds, and the positive control wells had been incubated with 10 μM CP465022 (a non-subtype-selective AMPA receptor antagonist) (Lazzaro et al. (2002). “Functional characterization of CP-465,022, a selective, noncompetitive AMPA receptor antagonist.” Neuropharmacology 42(2): 143-153). The responses to glutamate as functions of the test compound concentrations were fitted to a four-parameter logistic function. The fitted parameter corresponding to the midpoint was taken to be the potency of inhibition of the compound. The data in Table 4 below illustrates the observed potentcy for the compounds described herein. pIC50 refers to the negative log of the IC50 in molar.
In general terms: Calcium assays in cells follow changes in intracellular calcium, usually with a dye or a luminescent sensor.
On to `Cc1cccc(C)c1-c1ccc2c(c1)CC(=O)N2` [Example 1, 5-(2,6-Dimethylphenyl)indolin-2-one], for which the “GluR1-γ8 pIC50” value is recorded as 6.4.
For `Cc1cc(-c2c(Cl)cccc2OC(F)(F)F)cc2c1NC(=O)C2` [Example 127, 5-[2-Chloro-6-(trifluoromethoxy)phenyl]-7-methyl-indolin-2-one], the “GluR1-γ8 pIC50” value is given as 9.7.
The same measure, in the same setting: under `Cc1cc(-c2c(Cl)cncc2OC(F)F)cc2c1NC(=O)C2` [Example 146, 5-(3-Chloro-5-(difluoromethoxy)pyridin-4-yl)-7-methylindolin-2-one] stands 8.1.

Still in this assay, the particulars now being: HEK293 cells stably expressing GRIA1o-CACNG8 fusion; 15 μM glutamate; pIC50 = negative log of the IC50 in molar; read-out: GluR1-γ8 pIC50 (converted).
In the case of `Cc1cc(-c2c(F)cccc2Cl)cc2c1NC(=O)C2` [Example 141, 5-(2-Chloro-6-fluoro-phenyl)-7-methyl-indolin-2-one], the IC50 is 2 nM.
Take `N#Cc1ccc(Cl)c(-c2ccc3c(c2)CC(=O)N3)c1OC(F)(F)F` [Example 115, 4-Chloro-3-(2-oxoindolin-5-yl)-2-(trifluoromethoxy)benzonitrile]: the IC50 was 12.6 nM.
`O=C1Cc2cc(-c3c(Cl)cccc3OC(F)(F)F)cc(C(F)(F)F)c2N1` [Example 176, 5-[2-Chloro-6-(trifluoromethoxy)phenyl]-7-(trifluoromethyl)indolin-2-one]: the IC50 was 0.501 nM.
`Cc1cc(-c2c(C)cccc2Cl)cc2c1NC(=O)C2` [Example 135, 5-(2-Chloro-6-methyl-phenyl)-7-methyl-indolin-2-one]: the IC50 was 0.398 nM.
Take `O=C1Cc2cc(-c3c(Cl)cccc3Cl)ccc2N1` [Example 4, 5-(2,6-Dichlorophenyl)indolin-2-one]: the IC50 was 31.6 nM.
On to `COc1nccc(C)c1-c1cc(Cl)c2c(c1)CC(=O)N2` [Example 162, 7-Chloro-5-(2-methoxy-4-methyl-3-pyridyl)indolin-2-one], for which the IC50 was 7.94 nM.
Still for that read-out and setting: under `CCc1cc(-c2c(C)cccc2F)cc2c1NC(=O)C2` [Example 171, 7-Ethyl-5-(2-fluoro-6-methyl-phenyl)indolin-2-one] stands 1.58 nM; under `COc1cccc(OC(F)F)c1-c1cc(C)c2c(c1)CC(=O)N2` [Example 130, 5-[2-(Difluoromethoxy)-6-methoxy-phenyl]-7-methyl-indolin-2-one], 12.6 nM.
For `Cc1cc(-c2c(Cl)cccc2OC(F)F)cc2c1NC(=O)C2` [Example 128, 5-[2-Chloro-6-(difluoromethoxy)phenyl]-7-methyl-indolin-2-one], the IC50 is 1 nM.
Turning to `O=C1Cc2cc(-c3c(Cl)cncc3OC(F)(F)F)cc(Cl)c2N1` [Example 157, 7-Chloro-5-(3-chloro-5-(trifluoromethoxy)pyridin-4-yl)indolin-2-one], the IC50 is 6.31 nM.
As to `Cc1cncc(C)c1-c1cc(F)c2c(c1)CC(=O)N2` [Example 125, 5-(3,5-Dimethyl-4-pyridyl)-7-fluoro-indolin-2-one], the IC50 is 251 nM.
Regarding `CCc1cc(-c2c(Cl)cccc2OC(F)(F)F)cc2c1NC(=O)C2` [Example 168, 5-[2-Chloro-6-(trifluoromethoxy)phenyl]-7-ethyl-indolin-2-one], the IC50 is 0.0501 nM.
In the case of `Cc1ccnc(C)c1-c1cc(Cl)c2c(c1)CC(=O)N2` [Example 161, 7-Chloro-5-(2,4-dimethyl-3-pyridyl)indolin-2-one], the IC50 was 158 nM.
As for `O=C1Cc2cc(-c3c(Cl)cccc3OC(F)(F)F)cc(F)c2N1` [Example 117, 5-(2-Chloro-6-(trifluoromethoxy)phenyl)-7-fluoroindolin-2-one], the IC50 was 3.16 nM.
Consider `O=C1Cc2cc(-c3c(Cl)cncc3Cl)cc(F)c2N1` [Example 126, 5-(3,5-Dichloro-4-pyridyl)-7-fluoro-indolin-2-one], for which the IC50 is 316 nM.
Same read-out and setting: with `O=C1Cc2cc(-c3c(Cl)ccnc3Cl)cc(Cl)c2N1` [Example 163, 7-Chloro-5-(2,4-dichloro-3-pyridyl)indolin-2-one] the figure was 1.58 nM; with `O=C1Cc2cc(-c3c(Cl)cccc3OC(F)F)cc(F)c2N1` [Example 118, 5-(2-Chloro-6-(difluoromethoxy)phenyl)-7-fluoroindolin-2-one], 15.8 nM.
The same measure, in the same setting: under `CCc1cc(-c2c(C)cccc2C(F)(F)F)cc2c1NC(=O)C2` [Example 172, 7-Ethyl-5-[2-methyl-6-(trifluoromethyl)phenyl]indolin-2-one] stands 0.2 nM; under `N#Cc1ccc(OC(F)(F)F)c(-c2cc(F)c3c(c2)CC(=O)N3)c1Cl` [Example 124, 2-Chloro-3-(7-fluoro-2-oxo-indolin-5-yl)-4-(trifluoromethoxy)benzonitrile], 12.6 nM; under `CC(C)(C#N)c1cccc(Cl)c1-c1cc(Cl)c2c(c1)CC(=O)N2` [Example 155, 2-[3-Chloro-2-(7-chloro-2-oxo-indolin-5-yl)phenyl]-2-methyl-propanenitrile], 0.158 nM.
Turning to `O=C1Cc2cc(-c3c(Cl)cccc3OC(F)(F)F)cc(Cl)c2N1` [Example 153, 7-Chloro-5-[2-chloro-6-(trifluoromethoxy)phenyl]indolin-2-one], the IC50 was 0.0794 nM.
The same measure, in the same setting: under `CCc1cc(-c2c(Cl)cncc2Cl)cc2c1NC(=O)C2` [Example 174, 5-(3,5-Dichloro-4-pyridyl)-7-ethyl-indolin-2-one] stands 5.01 nM.
Same read-out and setting: with `Cc1cc(-c2c(Cl)cccc2C(C)(C)C#N)cc2c1NC(=O)C2` [Example 132, 2-[3-Chloro-2-(7-methyl-2-oxo-indolin-5-yl)phenyl]-2-methyl-propanenitrile] the figure was 0.501 nM; with `Cc1cccc(OC(F)F)c1-c1cc(F)c2c(c1)CC(=O)N2` [Example 122, 5-[2-(Difluoromethoxy)-6-methyl-phenyl]-7-fluoro-indolin-2-one], 15800 nM.
With `Cc1cc(-c2c(C)cccc2C#N)cc2c1NC(=O)C2` [Example 138, 3-Methyl-2-(7-methyl-2-oxo-indolin-5-yl)benzonitrile], the IC50 was 2.51 nM.
With `CCc1cc(-c2c(C)cccc2C#N)cc2c1NC(=O)C2` [Example 169, 2-(7-Ethyl-2-oxo-indolin-5-yl)-3-methyl-benzonitrile], the IC50 is 3.16 nM.
Regarding `Cc1cc(-c2c(Cl)cncc2OC(F)(F)F)cc2c1NC(=O)C2` [Example 145, 5-[3-Chloro-5-(trifluoromethoxy)-4-pyridyl]-7-methyl-indolin-2-one], the IC50 is 3.16 nM.
The same measure, in the same setting: under `Cc1cc(-c2c(C)cccc2C)cc2c1NC(=O)C2` [Example 142, 5-(2,6-Dimethylphenyl)-7-methyl-indolin-2-one] stands 2.51 nM; under `O=C1Cc2cc(-c3c(Cl)cccc3OC(F)F)cc(Cl)c2N1` [Example 154, 7-Chloro-5-[2-chloro-6-(difluoromethoxy)phenyl]indolin-2-one], 0.316 nM.
The same measure, in the same setting: with `Cc1cc(-c2c(C)ccnc2C)cc2c1NC(=O)C2` [Example 151, 5-(2,4-Dimethyl-3-pyridyl)-7-methyl-indolin-2-one] the figure was 631 nM; with `Cc1cc(-c2c(Cl)ccc(C#N)c2OC(F)(F)F)cc2c1NC(=O)C2` [Example 133, 4-Chloro-3-(7-methyl-2-oxoindolin-5-yl)-2-(trifluoromethoxy)benzonitrile], 0.126 nM; with `O=C1Cc2cc(-c3c(Cl)cccc3Br)ccc2N1` [Example 2, 5-(2-Bromo-6-chlorophenyl)indolin-2-one], 25.1 nM.
On to `Cc1cc(-c2c(C)cccc2C(F)(F)F)cc2c1NC(=O)C2` [Example 137, 7-Methyl-5-[2-methyl-6-(trifluoromethyl)phenyl]indolin-2-one], for which the IC50 is 1.26 nM.

These data come from patent US10604484B2, “Indolone compounds and their use as AMPA receptor modulators” (Janssen Pharmaceutica NV, priority 2015, dated 2020).
